This passage reports IC50 results from patent EP4803142A2 (Kayothera Inc., priority 2021, dated 2022).

In general, IC50 refers to the point on the concentration scale where inhibition reaches its midpoint.

One assay has as its target T1, mALDH1a2 (Mus musculus, UniProt Q62148).
T1 construct: pET-Aldh1a2 transformed BL21-DE3 cultures; cell extracts
T1 sequence (Q62148 1-518): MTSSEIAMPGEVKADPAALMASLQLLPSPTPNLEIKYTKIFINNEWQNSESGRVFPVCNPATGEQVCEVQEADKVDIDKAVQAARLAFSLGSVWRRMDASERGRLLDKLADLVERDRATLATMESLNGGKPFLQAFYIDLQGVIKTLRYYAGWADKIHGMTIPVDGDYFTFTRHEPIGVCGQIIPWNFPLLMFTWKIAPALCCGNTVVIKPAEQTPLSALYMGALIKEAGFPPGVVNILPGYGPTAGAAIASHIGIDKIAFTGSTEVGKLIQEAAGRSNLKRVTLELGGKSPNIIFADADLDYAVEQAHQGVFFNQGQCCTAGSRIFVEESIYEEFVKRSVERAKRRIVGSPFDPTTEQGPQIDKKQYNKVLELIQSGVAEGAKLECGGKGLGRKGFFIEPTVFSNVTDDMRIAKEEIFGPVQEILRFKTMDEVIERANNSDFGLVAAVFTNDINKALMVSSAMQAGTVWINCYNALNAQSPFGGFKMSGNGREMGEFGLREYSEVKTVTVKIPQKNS
As to the kind of experiment: biochemical. The settings on record: read-out: mAldhla2 IC50. Here is the method:
(§1) Biological Example 5C. Aldh1a2 Enzyme Inhibition Assay
(§2) Cell extracts were spun at 16000 x g for 5 minutes.
(§3) Recombinant enzyme and inhibitor added immediately before assay. Reaction rate measured by resorufin fluorescence. […]
(§4) Table 3B. IC50 values (nM) for inhibition of hALDH1a2 and mALDH1a2 of selected compounds

For the next assay, the target named is T2, hALDH1a2 (Homo sapiens, UniProt O94788).
T2 construct: pET-Aldh1a2 transformed BL21-DE3 cultures; cell extracts
T2 sequence (O94788 1-518): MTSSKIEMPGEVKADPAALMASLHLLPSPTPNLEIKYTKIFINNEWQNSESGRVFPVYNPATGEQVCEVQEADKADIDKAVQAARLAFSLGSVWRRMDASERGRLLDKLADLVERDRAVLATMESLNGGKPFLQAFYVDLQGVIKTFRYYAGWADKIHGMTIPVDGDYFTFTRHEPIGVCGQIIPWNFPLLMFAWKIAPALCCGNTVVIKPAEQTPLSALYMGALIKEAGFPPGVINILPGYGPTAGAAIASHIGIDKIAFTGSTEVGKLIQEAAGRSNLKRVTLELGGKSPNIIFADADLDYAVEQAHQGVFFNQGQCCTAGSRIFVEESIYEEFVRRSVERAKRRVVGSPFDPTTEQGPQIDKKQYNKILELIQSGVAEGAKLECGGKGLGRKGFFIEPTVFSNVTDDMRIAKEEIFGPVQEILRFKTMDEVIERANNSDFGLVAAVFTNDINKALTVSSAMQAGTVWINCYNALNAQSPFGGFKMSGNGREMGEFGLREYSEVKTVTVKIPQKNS
As to the kind of experiment: biochemical. The conditions noted are these: read-out: hAldhla2 IC50. Here is the method:
as §1, §2, §3, §4

Some results are limits rather than exact numbers.

For the compound `CCc1cnccc1C(=O)Nc1cc2ccc(=O)[nH]c2cc1F` [compound 39], the IC50 was determined as 8000 nM on mALDH1a2 and 3500 nM at hALDH1a2.

On to `CCc1cnccc1C(=O)Nc1cc2c(cc1F)NC(=O)CC2(C)C` [compound 40], for which the figures for the concentration for half-maximal inhibition (IC50) at mALDH1a2 and at hALDH1a2 were 3330 nM and 1040 nM, respectively.

With `COc1cnccc1C(=O)Nc1cc2c(cc1F)NC(=O)C(C)(C)C2` [compound 41], the figures for the IC50 on mALDH1a2 and at hALDH1a2 were 11100 nM and 9000 nM, respectively.

As for `CCc1cc(C#N)ccc1C(=O)Nc1cc2c(cc1F)NC(=O)C(C)(C)C2` [compound 42], the results for the half-maximal inhibitory concentration (IC50) at mALDH1a2 and at hALDH1a2 were 2600 nM and 6360 nM, respectively.

Consider `CCc1cnccc1/C=C/c1ccc2c(c1)CC(C)(C)C(=O)N2` [compound 43], for which the IC50 at mALDH1a2 was 3000 nM; on hALDH1a2 it was 1200 nM.

As to `CCc1cnccc1/C=C/c1cc2c(cc1F)NC(=O)CC2` [compound 45], the IC50 was 3330 nM on mALDH1a2 and 293 nM at hALDH1a2.

With `CC1(C)Cc2cc(Nc3ccc4ccccc4n3)ccc2NC1=O` [compound 46], the results for the IC50 at mALDH1a2 and at hALDH1a2 were 162 nM and 248 nM, respectively.

As for `O=C1CCc2cc(Nc3ccc4ccccc4n3)c(F)cc2N1` [compound 47], the results for the IC50 at mALDH1a2 and at hALDH1a2 were 72 nM and 99 nM, respectively.

For `CC1(C)Cc2cc(Nc3ccc4ccccc4n3)c(F)cc2NC1=O` [compound 48], the values for the IC50 on mALDH1a2 and on hALDH1a2 were 97 nM and 99 nM, respectively.

Take `CCc1c(C(=O)Nc2ccc3c(c2)CCC(=O)N3)cc[nH]c1=O` [compound 50]: the IC50 on mALDH1a2 and at hALDH1a2 was greater than 10000 nM throughout.

With `CCc1c[nH]c(=O)cc1C(=O)Nc1ccc2c(c1)CCC(=O)N2` [compound 51], the half-inhibitory concentration (IC50) on mALDH1a2 and on hALDH1a2 was greater than 10000 nM in each case.

`O=C1CCc2cc(NC(=O)c3ccnc4ccccc34)ccc2N1` [compound 52]: the IC50 came to 117 nM on mALDH1a2 and 320 nM at hALDH1a2.

In the case of `O=C1CCc2cc(NC(=O)c3ccncc3C(F)(F)F)ccc2N1` [compound 54], the IC50 at mALDH1a2 turned out to be 224 nM; at hALDH1a2 it was 1060 nM.

Take `CCc1c(C(=O)Nc2ccc3c(c2)CCC(=O)N3)ccnc1C` [compound 55]: the 50% inhibitory concentration (IC50) at mALDH1a2 and at hALDH1a2 was greater than 10000 nM in each case.

With `CCc1cnc(C)cc1C(=O)Nc1ccc2c(c1)CCC(=O)N2` [compound 56], the IC50 on mALDH1a2 turned out to be 1260 nM; at hALDH1a2, 10000 nM.

Take `COCc1cnccc1C(=O)Nc1ccc2c(c1)CCC(=O)N2` [compound 57]: the IC50 on mALDH1a2 and on hALDH1a2 was greater than 10000 nM throughout.

Take `CN(C)Cc1cnccc1C(=O)Nc1ccc2c(c1)CCC(=O)N2` [compound 58]: the IC50 at mALDH1a2 and at hALDH1a2 was greater than 10000 nM throughout.

For `CCCc1cnccc1C(=O)Nc1ccc2c(c1)CCC(=O)N2` [compound 60], the IC50 on mALDH1a2 came out at 935 nM; on hALDH1a2 it was 1530 nM.

Turning to `CCc1cnccc1C(=O)Nc1ccc2c(c1)CC1(CC1)C(=O)N2` [compound 61], the IC50 at mALDH1a2 turned out to be 1810 nM; at hALDH1a2 it was 2040 nM.

On to `CCc1cnccc1C(=O)Nc1ccc2c(c1)CC(C)(CC)C(=O)N2` (stereo not shown) [compound 62], for which the 50% inhibitory concentration (IC50) on mALDH1a2 and on hALDH1a2 was greater than 10000 nM throughout.

`CCc1cnccc1C(=O)Nc1ccc2c(c1)CC(C)C(=O)N2` (stereo not shown) [compound 63]: the values for the IC50 on mALDH1a2 and on hALDH1a2 were 297 nM and 538 nM, respectively.

`CCc1cnccc1C(=O)Nc1ccc2c(c1)C(C)CC(=O)N2` (stereo not shown) [compound 64]: the IC50 at mALDH1a2 amounted to 5000 nM; at hALDH1a2, 2790 nM.

Turning to `Cc1cc(C(=O)Nc2ccc3c(c2)CC2(CC2)C(=O)N3)c(Cl)cn1` [compound 68], the IC50 is 3440 nM at mALDH1a2 and greater than 10000 nM on hALDH1a2.

As for `CC(C)=Cc1cnc(C)cc1C(=O)Nc1ccc2c(c1)CC(C)(C)C(=O)N2` [compound 69], the IC50 on mALDH1a2 and on hALDH1a2 was greater than 10000 nM each time.

Regarding `CCc1cnccc1C(=O)Nc1cc2c(cc1Cl)NC(=O)CC2` [compound 70], the IC50 on mALDH1a2 is 2960 nM; at hALDH1a2 it was greater than 10000 nM.

With `C=CCc1cnccc1C(=O)Nc1ccc2c(c1)CCC(=O)N2` [compound 71], the IC50 is 747 nM at mALDH1a2 and 963 nM on hALDH1a2.

On to `CCc1cccnc1C(=O)Nc1cc2c(cc1Cl)NC(=O)CC2` [compound 72], for which the IC50 at mALDH1a2 and on hALDH1a2 was greater than 10000 nM in each case.

Consider `CCc1c[n+]([O-])ccc1C(=O)Nc1ccc2c(c1)CCC(=O)N2` [compound 73], for which the IC50 on mALDH1a2 and on hALDH1a2 was greater than 10000 nM in each case.

`CCc1cc(=O)n(C)cc1C(=O)Nc1ccc2c(c1)CCC(=O)N2` [compound 76]: the results for the half-inhibitory concentration (IC50) at mALDH1a2 and at hALDH1a2 were 4310 nM and 6560 nM, respectively.

As to `CCc1cnc(F)cc1C(=O)Nc1ccc2c(c1)CCC(=O)N2` [compound 78], the figures for the 50% inhibitory concentration (IC50) on mALDH1a2 and at hALDH1a2 were 366 nM and 460 nM, respectively.

On to `CCc1cnc(C)cc1C(=O)Nc1cc2c(cc1F)NC(=O)CC2` [compound 79], for which the half-maximal inhibitory concentration (IC50) on mALDH1a2 stood at 849 nM; at hALDH1a2, 1460 nM.

Take `CCc1cnc(Cl)cc1C(=O)Nc1cc2c(cc1F)NC(=O)CC2` [compound 80]: the IC50 on mALDH1a2 worked out at 324 nM; at hALDH1a2, 384 nM.

Consider `O=C1CCc2cc(NC(=O)c3ccncc3CC3CC3)c(F)cc2N1` [compound 81], for which the values for the IC50 at mALDH1a2 and on hALDH1a2 were 522 nM and 376 nM, respectively.

With `CCc1cnccc1C(=O)Nc1cc2c(cc1C#N)NC(=O)CC2` [compound 84], the IC50 at mALDH1a2 and at hALDH1a2 was greater than 10000 nM throughout.

As to `N#Cc1cccc2nc(Nc3ccc4c(c3)CCC(=O)N4)ccc12` [compound 86], the values for the IC50 at mALDH1a2 and on hALDH1a2 were 84 nM and 10000 nM, respectively.

Regarding `Cc1cccc2nc(Nc3ccc4c(c3)CCC(=O)N4)ccc12` [compound 87], the IC50 at mALDH1a2 was determined as 149 nM; at hALDH1a2 it was 419 nM.

As for `N#Cc1ccc2nc(Nc3ccc4c(c3)CCC(=O)N4)ccc2c1` [compound 88], the concentration for half-maximal inhibition (IC50) on mALDH1a2 and on hALDH1a2 was greater than 10000 nM each time.

Take `Cc1ccc2nc(Nc3ccc4c(c3)CCC(=O)N4)ccc2c1` [compound 89]: the half-inhibitory concentration (IC50) worked out at 489 nM at mALDH1a2 and 10000 nM on hALDH1a2.

For the compound `N#Cc1ccc2ccc(Nc3ccc4c(c3)CCC(=O)N4)nc2c1` [compound 90], the IC50 on mALDH1a2 was found to be 6380 nM; on hALDH1a2, 10000 nM.

Regarding `Cc1ccc2ccc(Nc3ccc4c(c3)CCC(=O)N4)nc2c1` [compound 91], the concentration for half-maximal inhibition (IC50) was found to be 594 nM on mALDH1a2 and 998 nM on hALDH1a2.

In the case of `CC1(C)Cc2cc(Nc3cnc4ccccc4n3)ccc2NC1=O` [compound 92], the values for the IC50 on mALDH1a2 and at hALDH1a2 were 31 nM and 40 nM, respectively.

As to `CC1(C)Cc2cc(Nc3ncc4ccccc4n3)ccc2NC1=O` [compound 93], the results for the IC50 at mALDH1a2 and at hALDH1a2 were 63 nM and 80 nM, respectively.

Consider `CC1(C)Cc2cc(Nc3ccc4ccncc4n3)ccc2NC1=O` [compound 94], for which the half-maximal inhibitory concentration (IC50) at mALDH1a2 was 921 nM; on hALDH1a2, 809 nM.

Consider `CC1(C)Cc2cc(Nc3ccc4cnccc4n3)ccc2NC1=O` [compound 95], for which the IC50 on mALDH1a2 came to 1770 nM; at hALDH1a2, 10000 nM.

As to `Cc1ccc(Nc2ccc3c(c2)CC(C)(C)C(=O)N3)nc1C` [compound 96], the half-inhibitory concentration (IC50) at mALDH1a2 and on hALDH1a2 was greater than 10000 nM in each case.

Take `CC1(C)Cc2cc(Nc3ccc(Cl)c(Cl)n3)ccc2NC1=O` [compound 97]: the IC50 at mALDH1a2 came to 294 nM; at hALDH1a2 it was 466 nM.

Consider `CC1(C)Cc2cc(Nc3nc4ccccc4[nH]3)ccc2NC1=O` [compound 98], for which the figures for the IC50 on mALDH1a2 and on hALDH1a2 were 1290 nM and 3080 nM, respectively.
